Data taken from US10766896B2, “Imidazo[4,5-c] ring compounds containing guanidine substituted benzamide groups” (3M INNOVATIVE PROPERTIES COMPANY, priority 2017, dated 2020).
Structures can show the parent of a compound that is named as a salt.

Test system: Human peripheral blood mononuclear cells (PBMC)
Test: Cytokine Induction in Human Cells (PBMC; IFN-alpha by ELISA, IFN-gamma and TNF-alpha by multiplex bead assay)
Type: cell-based
Settings: 21-24 hrs culture, lowest concentration inducing cytokine at least 2× greater than negative control; for MEC to Induce Cytokine IFN-alpha: ELISA; for MEC to Induce Cytokine IFN-gamma / MEC to Induce Cytokine TNF-alpha: multiplex bead assay
Method: Interferon-alpha (IFN-alpha), interferon-gamma (IFN-gamma) and tumor necrosis factor-alpha (TNF-alpha) cytokine levels (pg/mL) were measured using the procedure ‘Cytokine Induction of Human Cells’ described below. The only difference was that for Examples 2, 3, and 4 the diluted compounds were transferred to the PBMCs to achieve final compound concentrations of 100, 33.3, 11.1, 3.7, 1.23, and 0.41 micromolar. The positive control wells contained imiquimod serially diluted to concentrations of 100, 33.3, 11.1, 3.7, 1.23, and 0.41 micromolar. For Example 5, the diluted compound and positive control (imiquimod) were individually transferred to the PBMCs to achieve final concentrations of 30, 10, 3.3, 1.1, 0.37, 0.12, 0.04, and 0.01 micromolar. According to the procedure described below, IFN-alpha cytokine levels (pg/mL) were measured by using the ELISA assay (human IFN-α, pan specific, Mabtech, Cincinnati, Ohio). IFN-gamma and TNF-alpha levels (pg/mL) were measured by using the multiplex bead assay (magnetic beads, R & D Systems Minneapolis, Minn.) according to the manufacturer's instructions. […] Specifically, the minimum effective concentration of each compound (micromolar) was determined as the lowest concentration of the compound that induced a measured cytokine response at a level ([…]) that was at least 2× greater than that observed with the negative control wells.
Cytokine Induction in Human Cells
Whole blood can be obtained from healthy human donors and collected by venipuncture into vacutainer tubes or syringes containing EDTA. Human peripheral blood mononuclear cells (PBMC) are purified from the whole blood by density gradient centrifugation. Histopaque 1077 (15 mL, Sigma, St. Louis, Mo.) is transferred to 6×50 mL sterile polypropylene conical tubes. The Histopaque is overlayed with 15-25 mL of blood diluted 1:2 in Hank's Balanced Salts Solution (HBSS) (Gibco, Life Technology, Grand Island N.Y.). The tubes are then centrifuged at 1370 rpm for 30 minutes at 20° C., with no brake (400×g, GH 3.8A Rotor).
The interface (buffy coat) containing the PBMC is collected and placed in a new sterile 50 mL conical polypropylene centrifuge tube. The PBMC are mixed with an equal volume of HBSS about 20 mL from the interface and about 20 mL of HBSS), and then centrifuged at 1090 rpm, 10 min, 20° C., with brake (270×g, GH 3.8A Rotor). After completing centrifugation, the cells are resuspended in 2-3 mL ACK Red blood cell lysis buffer (ammonium chloride potassium solution, Gibco, Life Technology) and incubated for 2-5 minutes at 20° C. Next, HBSS (40 mL) is added to the cells, and the sample is centrifuged at 270×g for 10 min at 20° C. The supernatant is decanted, and the cell pellet is resuspended in 5 mL AIM V® Medium (Gibco, Life Technology). Cell aggregates and debris are removed by filtering the cell solution through a BD Falcon 70 micron nylon cell strainer (BD Biosciences, San Jose, Calif.).
The number of viable cells is determined by counting with a Miltenyi FACS instrument (Miltenyi Biotec Inc., San Diego, Calif.) or by using a hemacytometer. For determining cell viability with a hemacytometer, the cells are diluted 1/10 in 0.4% trypan blue and HBSS (specifically, 50 microliter of trypan blue+40 microliter of HBSS+10 microliter of cell solution are added to a microfuge tube and mixed). Ten microliters of the diluted cells are then applied to the hemacytometer, and the number of viable PBMC are determined by microscopy.
The PBMC sample is then resuspended in 96-well plates at a concentration of 8×10^5 cells/well in 0.1 mL of AIM-V medium. Each compound is solubilized in DMSO to create a 3 mM stock solution. The stock solution is then further diluted with AIM-V medium to prepare the serial dilutions. The diluted compound (100 microliters) is then transferred to the PBMCs to achieve final compound concentrations of 10, 1, 0.1, 0.01, 0.001, 0.0001 micromolar. The plates also have both positive and negative controls. […]

Structure (SMILES)	MEC to Induce Cytokine IFN-alpha	MEC to Induce Cytokine IFN-gamma	MEC to Induce Cytokine TNF-alpha
CCCCc1nc2c(N)nc3ccccc3c2n1CCOCCNC(=O)c1ccc(CNC(=N)N)cc1 [Example 2, N-[2-[2-(4-amino-2-butyl-imidazo[4,5-c]quinolin-1-yl)ethoxy]ethyl]-4-(guanidinomethyl)benzamide dihydrochloride]	1.2 µM	1.2 µM	3.7 µM
CCCc1nc2c(N)nc3ccccc3c2n1CCCCNC(=O)c1ccc(CNC(=N)N)cc1 [Example 3, N-[4-(4-amino-2-propyl-imidazo[4,5-c]quinolin-1-yl)butyl]-4-(guanidinomethyl)benzamide dihydrochloride]	3.7 µM	3.7 µM	3.7 µM
CCCCc1nc2c(N)nc3ccccc3c2n1CCCCNC(=O)c1ccc(NC(=N)N)cc1 [Example 4, N-[4-(4-amino-2-butyl-imidazo[4,5-c]quinolin-1-yl)butyl]-4-guanidinobenzamide dihydrochloride]	0.4 µM	3.7 µM	1.2 µM
CCCCc1nc2c(N)nc3ccccc3c2n1CCCCNC(=O)c1ccc(CNC(=N)N)cc1 [Example 5, N-[4-(4-amino-2-butyl-imidazo[4,5-c]quinolin-1-yl)butyl]-4-(guanidinomethyl)benzamide dihydrochloride]	0.37 µM	1.1 µM	
